# Experimental data from patent US20260356819A1, “OXOISOINDOLINYL-SUBSTITUTED […] DERIVATIVE AND USE THEREOF” (GLUETACS THERAPEUTICS (SHANGHAI) CO., LTD., priority 2023, published 2026).
# Tests used:
# Assay type in all cases: cell-based
# Conditions in all cases: compounds at 50 nM and 500 nM
# [1] = biological target: T1, WEE1 (Homo sapiens, UniProt P30291+Q96SW2); experiment: Western blot degradation of WEE1 in hPBMCs (24 h)
# T1 construct: The supernatant was aspirated as the extracted total cell protein; endogenous in cells; host or cells: human peripheral blood mononuclear cells (hPBMCs)
# Procedure, shortened: (§1)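 Thawed human PBMCs, 1×10^6 cells/mL; cpd 50 nM or 500 nM, 24 h; RIPA lysis, BCA, SDS-PAGE, NC transfer, immunoblot. Readout: grayscale/internal control → % remaining; degradation = 1 − remaining.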
# [2] = biological target: T2, IKZF3 (Homo sapiens, UniProt Q96SW2+Q9UKT9); experiment: Western blot degradation of IKZF3 in hPBMCs (24 h)
# T2 construct: The supernatant was aspirated as the extracted total cell protein; endogenous in cells; host or cells: human peripheral blood mononuclear cells (hPBMCs)
# Procedure, shortened: as §1
# [3] = biological target: T3, GSPT1 (Homo sapiens, UniProt P15170+Q96SW2); experiment: Western blot degradation of GSPT1 in hPBMCs (24 h)
# T3 construct: The supernatant was aspirated as the extracted total cell protein; endogenous in cells; host or cells: human peripheral blood mononuclear cells (hPBMCs)
# Procedure, shortened: as §1
# [4] = biological target: T4, IKZF2 (Homo sapiens, UniProt Q96SW2+Q9UKS7); experiment: Western blot degradation of IKZF2 in hPBMCs (24 h)
# T4 construct: The supernatant was aspirated as the extracted total cell protein; endogenous in cells; host or cells: human peripheral blood mononuclear cells (hPBMCs)
# Procedure, shortened: as §1
# [5] = biological target: T5, CK1α (Homo sapiens, UniProt P48729+Q96SW2); experiment: Western blot degradation of CK1α in hPBMCs (24 h)
# T5 construct: The supernatant was aspirated as the extracted total cell protein; endogenous in cells; host or cells: human peripheral blood mononuclear cells (hPBMCs)
# Procedure, shortened: as §1
# [6] = biological target: T6, IKZF1 (Homo sapiens, UniProt Q13422+Q96SW2); experiment: Western blot degradation of IKZF1 in hPBMCs (24 h)
# T6 construct: The supernatant was aspirated as the extracted total cell protein; endogenous in cells; host or cells: human peripheral blood mononuclear cells (hPBMCs)
# Procedure, shortened: as §1
# T1 sequence (P30291 whole entry): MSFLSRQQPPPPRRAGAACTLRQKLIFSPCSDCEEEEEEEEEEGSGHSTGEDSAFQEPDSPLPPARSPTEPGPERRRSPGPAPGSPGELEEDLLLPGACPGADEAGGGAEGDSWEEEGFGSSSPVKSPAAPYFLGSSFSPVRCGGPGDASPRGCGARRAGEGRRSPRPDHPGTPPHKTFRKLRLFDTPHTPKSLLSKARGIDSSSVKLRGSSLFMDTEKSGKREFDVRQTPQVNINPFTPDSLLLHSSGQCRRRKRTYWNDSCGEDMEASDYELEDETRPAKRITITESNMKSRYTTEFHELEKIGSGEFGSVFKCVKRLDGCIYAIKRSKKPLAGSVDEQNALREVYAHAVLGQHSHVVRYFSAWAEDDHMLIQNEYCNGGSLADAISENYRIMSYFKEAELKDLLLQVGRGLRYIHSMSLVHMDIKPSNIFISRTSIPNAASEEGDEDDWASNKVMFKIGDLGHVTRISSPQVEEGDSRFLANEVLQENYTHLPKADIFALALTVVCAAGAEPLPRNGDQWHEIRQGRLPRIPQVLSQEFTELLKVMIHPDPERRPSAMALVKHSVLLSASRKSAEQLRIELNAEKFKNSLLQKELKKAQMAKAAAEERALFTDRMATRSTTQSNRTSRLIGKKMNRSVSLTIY
# T1 sequence (Q96SW2 whole entry): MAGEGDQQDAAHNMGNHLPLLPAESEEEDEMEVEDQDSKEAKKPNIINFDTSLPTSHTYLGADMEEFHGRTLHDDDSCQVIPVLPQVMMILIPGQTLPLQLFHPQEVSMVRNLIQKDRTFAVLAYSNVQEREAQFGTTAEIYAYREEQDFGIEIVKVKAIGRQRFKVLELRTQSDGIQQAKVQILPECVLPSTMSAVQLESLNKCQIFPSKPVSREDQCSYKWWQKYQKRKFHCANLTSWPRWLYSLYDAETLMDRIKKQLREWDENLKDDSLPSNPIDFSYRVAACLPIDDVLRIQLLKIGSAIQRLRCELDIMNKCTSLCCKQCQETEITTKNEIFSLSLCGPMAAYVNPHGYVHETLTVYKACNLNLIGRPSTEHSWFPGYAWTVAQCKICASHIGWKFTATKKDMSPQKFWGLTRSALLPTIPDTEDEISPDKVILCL
# T1 sequence (Q16531 whole entry partner): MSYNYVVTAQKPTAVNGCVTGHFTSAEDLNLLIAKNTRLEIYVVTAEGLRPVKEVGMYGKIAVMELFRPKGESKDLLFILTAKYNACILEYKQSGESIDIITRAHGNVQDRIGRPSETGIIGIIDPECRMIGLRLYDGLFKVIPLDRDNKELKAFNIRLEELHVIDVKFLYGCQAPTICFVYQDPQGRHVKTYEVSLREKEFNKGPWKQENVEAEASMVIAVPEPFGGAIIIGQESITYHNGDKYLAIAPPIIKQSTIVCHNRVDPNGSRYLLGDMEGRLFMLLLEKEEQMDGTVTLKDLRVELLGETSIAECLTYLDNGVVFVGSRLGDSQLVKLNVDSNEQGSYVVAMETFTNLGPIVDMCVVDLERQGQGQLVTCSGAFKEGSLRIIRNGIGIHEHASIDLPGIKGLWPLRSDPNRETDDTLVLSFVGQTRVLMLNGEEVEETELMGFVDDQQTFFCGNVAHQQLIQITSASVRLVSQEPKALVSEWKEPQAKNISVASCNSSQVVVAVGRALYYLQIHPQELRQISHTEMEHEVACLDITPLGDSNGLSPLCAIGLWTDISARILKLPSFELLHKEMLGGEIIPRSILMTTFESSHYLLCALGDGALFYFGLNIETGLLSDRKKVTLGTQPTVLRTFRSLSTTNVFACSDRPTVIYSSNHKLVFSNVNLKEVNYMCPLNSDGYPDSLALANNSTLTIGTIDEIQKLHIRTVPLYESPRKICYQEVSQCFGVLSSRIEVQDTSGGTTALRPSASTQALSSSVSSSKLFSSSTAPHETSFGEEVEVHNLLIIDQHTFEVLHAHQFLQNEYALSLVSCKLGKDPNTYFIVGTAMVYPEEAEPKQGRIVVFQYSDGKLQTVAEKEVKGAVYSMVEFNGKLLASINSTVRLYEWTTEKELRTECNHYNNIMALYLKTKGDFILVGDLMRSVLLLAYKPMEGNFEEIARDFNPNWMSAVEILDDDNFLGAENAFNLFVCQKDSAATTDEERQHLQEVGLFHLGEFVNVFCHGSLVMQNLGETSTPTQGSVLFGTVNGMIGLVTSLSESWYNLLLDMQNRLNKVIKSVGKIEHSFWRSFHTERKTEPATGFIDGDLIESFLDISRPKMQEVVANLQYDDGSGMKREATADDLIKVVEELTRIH
# T3 sequence (P15170 whole entry): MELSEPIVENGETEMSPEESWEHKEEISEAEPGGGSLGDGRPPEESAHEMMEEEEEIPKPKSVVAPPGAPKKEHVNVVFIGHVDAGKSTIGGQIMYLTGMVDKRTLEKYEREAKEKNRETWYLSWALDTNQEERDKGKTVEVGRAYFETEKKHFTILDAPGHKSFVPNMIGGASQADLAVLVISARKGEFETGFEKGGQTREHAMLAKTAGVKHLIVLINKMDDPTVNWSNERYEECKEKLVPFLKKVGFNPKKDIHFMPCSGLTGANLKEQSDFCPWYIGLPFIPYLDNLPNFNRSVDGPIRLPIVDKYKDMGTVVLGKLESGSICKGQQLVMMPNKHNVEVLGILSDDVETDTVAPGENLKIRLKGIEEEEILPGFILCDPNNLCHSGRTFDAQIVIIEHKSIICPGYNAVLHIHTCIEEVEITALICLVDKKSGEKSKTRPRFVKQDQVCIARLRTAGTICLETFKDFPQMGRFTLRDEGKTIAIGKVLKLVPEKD
# T3 sequence (Q96SW2 whole entry): as the sequence (Q96SW2 whole entry) above
# T3 sequence (Q16531 whole entry partner): as the sequence (Q16531 whole entry partner) above
# T4 sequence (Q9UKS7 whole entry): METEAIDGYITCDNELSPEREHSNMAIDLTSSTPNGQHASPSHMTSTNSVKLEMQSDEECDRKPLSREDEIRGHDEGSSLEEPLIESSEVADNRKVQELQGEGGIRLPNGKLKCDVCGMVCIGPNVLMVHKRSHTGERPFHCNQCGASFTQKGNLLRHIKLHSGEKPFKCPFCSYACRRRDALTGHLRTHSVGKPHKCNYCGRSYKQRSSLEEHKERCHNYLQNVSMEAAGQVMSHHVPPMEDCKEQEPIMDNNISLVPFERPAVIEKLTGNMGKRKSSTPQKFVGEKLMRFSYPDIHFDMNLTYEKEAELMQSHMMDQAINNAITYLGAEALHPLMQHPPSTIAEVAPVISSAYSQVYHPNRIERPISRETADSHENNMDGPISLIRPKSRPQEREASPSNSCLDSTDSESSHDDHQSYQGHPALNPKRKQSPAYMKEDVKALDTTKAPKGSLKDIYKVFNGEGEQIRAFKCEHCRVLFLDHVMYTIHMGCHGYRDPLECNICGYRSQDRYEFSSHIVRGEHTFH
# T4 sequence (Q96SW2 whole entry): as the sequence (Q96SW2 whole entry) above
# T4 sequence (Q16531 whole entry partner): as the sequence (Q16531 whole entry partner) above
# T2 sequence (Q9UKT9 whole entry): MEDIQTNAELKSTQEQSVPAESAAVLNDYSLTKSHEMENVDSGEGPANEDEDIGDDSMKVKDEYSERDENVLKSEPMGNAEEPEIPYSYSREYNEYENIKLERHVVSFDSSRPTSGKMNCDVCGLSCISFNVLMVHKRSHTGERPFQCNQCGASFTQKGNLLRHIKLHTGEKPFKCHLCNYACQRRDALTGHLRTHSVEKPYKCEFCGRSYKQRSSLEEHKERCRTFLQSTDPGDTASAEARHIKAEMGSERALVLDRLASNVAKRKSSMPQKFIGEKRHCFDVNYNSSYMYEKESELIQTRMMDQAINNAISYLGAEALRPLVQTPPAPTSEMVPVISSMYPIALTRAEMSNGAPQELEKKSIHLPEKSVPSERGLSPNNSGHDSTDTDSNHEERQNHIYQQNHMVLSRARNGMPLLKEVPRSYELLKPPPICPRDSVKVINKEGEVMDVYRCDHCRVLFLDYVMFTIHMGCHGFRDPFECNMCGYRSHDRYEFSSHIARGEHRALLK
# T2 sequence (Q96SW2 whole entry): as the sequence (Q96SW2 whole entry) above
# T2 sequence (Q16531 whole entry partner): as the sequence (Q16531 whole entry partner) above
# T6 sequence (Q13422 whole entry): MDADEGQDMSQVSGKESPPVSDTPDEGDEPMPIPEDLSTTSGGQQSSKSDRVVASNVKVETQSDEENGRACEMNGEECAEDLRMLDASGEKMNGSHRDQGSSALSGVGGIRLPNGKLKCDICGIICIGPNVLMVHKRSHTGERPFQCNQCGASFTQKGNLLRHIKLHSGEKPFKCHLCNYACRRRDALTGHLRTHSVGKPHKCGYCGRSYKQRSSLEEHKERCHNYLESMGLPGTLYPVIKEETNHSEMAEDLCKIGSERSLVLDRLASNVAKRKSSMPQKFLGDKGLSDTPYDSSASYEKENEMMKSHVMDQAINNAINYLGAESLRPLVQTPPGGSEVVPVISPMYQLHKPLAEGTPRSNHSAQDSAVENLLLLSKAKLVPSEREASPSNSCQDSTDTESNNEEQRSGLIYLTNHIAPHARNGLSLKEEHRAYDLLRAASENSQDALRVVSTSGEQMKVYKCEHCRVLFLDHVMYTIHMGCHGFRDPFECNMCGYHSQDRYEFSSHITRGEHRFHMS
# T6 sequence (Q96SW2 whole entry): as the sequence (Q96SW2 whole entry) above
# T6 sequence (Q16531 whole entry partner): as the sequence (Q16531 whole entry partner) above
Structure (SMILES),WEE1 substrate protein remaining % [1],IKZF3 substrate protein remaining % [2],GSPT1 substrate protein remaining % [3],IKZF2 substrate protein remaining % [4],CK1α substrate protein remaining % [5],IKZF1 substrate protein remaining % [6]
"O=C1CCN(N2Cc3cc(CN4CCN(c5ccnc(Cl)c5F)CC4)ccc3C2=O)C(=O)N1 [GT-07069, 1-(5-((4-(2-chloro-3-fluoropyridin-4-yl)piperazin-1-yl)methyl)-1-oxoisoindolin-2-yl)dihydropyrimidine-2,4(1H,3H)-dione]",A (0% ≤ substrate protein remaining % ≤80%),B (80%< substrate protein remaining % ≤100%),B (80%< substrate protein remaining % ≤100%),B (80%< substrate protein remaining % ≤100%),B (80%< substrate protein remaining % ≤100%),B (80%< substrate protein remaining % ≤100%)
"O=C1CCN(N2C(=O)c3ccc(CN4CCN(c5ccncc5)CC4)cc3C2=O)C(=O)N1 [GT-07073, 2-(2,4-dioxotetrahydropyrimidin-1(2H)-yl)-5-((4-(pyridin-4-yl)piperazin-1-yl)methyl)isoindoline-1,3-dione]",A (0% ≤ substrate protein remaining % ≤80%),B (80%< substrate protein remaining % ≤100%),B (80%< substrate protein remaining % ≤100%),B (80%< substrate protein remaining % ≤100%),B (80%< substrate protein remaining % ≤100%),B (80%< substrate protein remaining % ≤100%)
"O=C1CCN(N2Cc3cc(CN4CCN(c5cnccn5)CC4)ccc3C2=O)C(=O)N1 [GT-07160, 1-(1-oxo-5-((4-(pyrazin-2-yl)piperazin-1-yl)methyl)isoindolin-2-yl)dihydropyrimidine-2,4(1H,3H)-dione]",B (80%< substrate protein remaining % ≤100%),B (80%< substrate protein remaining % ≤100%),A (0% ≤ substrate protein remaining % ≤80%),A (0% ≤ substrate protein remaining % ≤80%),A (0% ≤ substrate protein remaining % ≤80%),B (80%< substrate protein remaining % ≤100%)
"Cc1cc(N2CCN(Cc3ccc4c(c3)C(=O)N(N3CCC(=O)NC3=O)C4=O)CC2)ccn1 [GT-07161, 2-(2,4-dioxotetrahydropyrimidin-1(2H)-yl)-5-((4-(2-methylpyridin-4-yl)piperazin-1-yl)methyl)isoindoline-1,3-dione]",B (80%< substrate protein remaining % ≤100%),B (80%< substrate protein remaining % ≤100%),A (0% ≤ substrate protein remaining % ≤80%),A (0% ≤ substrate protein remaining % ≤80%),B (80%< substrate protein remaining % ≤100%),B (80%< substrate protein remaining % ≤100%)
"O=C1CCN(N2C(=O)c3ccc(CN4CCN(c5nccc(F)c5F)CC4)cc3C2=O)C(=O)N1 [GT-07162, 5-((4-(3,4-difluoropyridin-2-yl)piperazin-1-yl)methyl)-2-(2,4-dioxotetrahydropyrimidin-1(2H)-yl)isoindoline-1,3-dione]",B (80%< substrate protein remaining % ≤100%),B (80%< substrate protein remaining % ≤100%),A (0% ≤ substrate protein remaining % ≤80%),A (0% ≤ substrate protein remaining % ≤80%),A (0% ≤ substrate protein remaining % ≤80%),B (80%< substrate protein remaining % ≤100%)
"O=C1CCN(N2C(=O)c3ccc(CN4CCN(c5ccncc5Br)CC4)cc3C2=O)C(=O)N1 [GT-07163, 5-((4-(3-bromopyridin-4-yl)piperazin-1-yl)methyl)-2-(2,4-dioxotetrahydropyrimidin-1(2H)-yl)isoindoline-1,3-dione]",B (80%< substrate protein remaining % ≤100%),B (80%< substrate protein remaining % ≤100%),A (0% ≤ substrate protein remaining % ≤80%),A (0% ≤ substrate protein remaining % ≤80%),B (80%< substrate protein remaining % ≤100%),B (80%< substrate protein remaining % ≤100%)
"O=C1CCN(N2C(=O)c3ccc(CN4CCN(c5ccncc5F)CC4)cc3C2=O)C(=O)N1 [GT-07164, 2-(2,4-dioxotetrahydropyrimidin-1(2H)-yl)-5-((4-(3-fluoropyridin-4-yl)piperazin-1-yl)methyl)isoindoline-1,3-dione]",B (80%< substrate protein remaining % ≤100%),B (80%< substrate protein remaining % ≤100%),A (0% ≤ substrate protein remaining % ≤80%),A (0% ≤ substrate protein remaining % ≤80%),B (80%< substrate protein remaining % ≤100%),B (80%< substrate protein remaining % ≤100%)
"O=C1CCN(N2C(=O)c3ccc(CN4CCN(c5ccncc5Cl)CC4)cc3C2=O)C(=O)N1 [GT-07165, 5-((4-(3-chloropyridin-4-yl)piperazin-1-yl)methyl)-2-(2,4-dioxotetrahydropyrimidin-1(2H)-yl)isoindoline-1,3-dione]",B (80%< substrate protein remaining % ≤100%),B (80%< substrate protein remaining % ≤100%),A (0% ≤ substrate protein remaining % ≤80%),A (0% ≤ substrate protein remaining % ≤80%),B (80%< substrate protein remaining % ≤100%),B (80%< substrate protein remaining % ≤100%)
"O=C1CCN(N2C(=O)c3ccc(CN4CCN(c5ccnc(Cl)c5F)CC4)cc3C2=O)C(=O)N1 [GT-07166, 5-((4-(2-chloro-3-fluoropyridin-4-yl)piperazin-1-yl)methyl)-2-(2,4-dioxotetrahydropyrimidin-1(2H)-yl)isoindoline-1,3-dione]",B (80%< substrate protein remaining % ≤100%),B (80%< substrate protein remaining % ≤100%),A (0% ≤ substrate protein remaining % ≤80%),A (0% ≤ substrate protein remaining % ≤80%),B (80%< substrate protein remaining % ≤100%),B (80%< substrate protein remaining % ≤100%)
"O=C1CCN(N2C(=O)c3ccc(CN4CCN(c5ccnc(Br)c5F)CC4)cc3C2=O)C(=O)N1 [GT-07167, 5-((4-(2-bromo-3-fluoropyridin-4-yl)piperazin-1-yl)methyl)-2-(2,4-dioxotetrahydropyrimidin-1(2H)-yl)isoindoline-1,3-dione]",B (80%< substrate protein remaining % ≤100%),B (80%< substrate protein remaining % ≤100%),A (0% ≤ substrate protein remaining % ≤80%),A (0% ≤ substrate protein remaining % ≤80%),B (80%< substrate protein remaining % ≤100%),B (80%< substrate protein remaining % ≤100%)
"O=C1CCN(N2C(=O)c3ccc(CN4CCN(c5ccnc(Cl)c5Br)CC4)cc3C2=O)C(=O)N1 [GT-07168, 5-((4-(3-bromo-2-chloropyridin-4-yl)piperazin-1-yl)methyl)-2-(2,4-dioxotetrahydropyrimidin-1(2H)-yl)isoindoline-1,3-dione]",B (80%< substrate protein remaining % ≤100%),B (80%< substrate protein remaining % ≤100%),A (0% ≤ substrate protein remaining % ≤80%),A (0% ≤ substrate protein remaining % ≤80%),B (80%< substrate protein remaining % ≤100%),B (80%< substrate protein remaining % ≤100%)
"O=C1CCN(N2Cc3cc(CN4CCN(c5ccnc(Cl)c5Cl)CC4)ccc3C2=O)C(=O)N1 [GT-07169, 1-(5-((4-(2,3-dichloropyridin-4-yl)piperazin-1-yl)methyl)-1-oxoisoindolin-2-yl)dihydropyrimidine-2,4(1H,3H)-dione]",A (0% ≤ substrate protein remaining % ≤80%),B (80%< substrate protein remaining % ≤100%),B (80%< substrate protein remaining % ≤100%),B (80%< substrate protein remaining % ≤100%),B (80%< substrate protein remaining % ≤100%),B (80%< substrate protein remaining % ≤100%)
"O=C1CCN(N2Cc3cc(CN4CCN(c5c(Cl)cncc5Br)CC4)ccc3C2=O)C(=O)N1 [GT-07170, 1-(5-((4-(3-bromo-5-chloropyridin-4-yl)piperazin-1-yl)methyl)-1-oxoisoindolin-2-yl)dihydropyrimidine-2,4(1H,3H)-dione]",A (0% ≤ substrate protein remaining % ≤80%),B (80%< substrate protein remaining % ≤100%),B (80%< substrate protein remaining % ≤100%),B (80%< substrate protein remaining % ≤100%),B (80%< substrate protein remaining % ≤100%),A (0% ≤ substrate protein remaining % ≤80%)
